In ChEMBL document CHEMBL1649094, “First Selective CYP11B1 Inhibitors for the Treatment of Cortisol-Dependent Diseases” (ACS Med Chem Lett, 2011):

Tests used:
Homo sapiens = species on record: Homo sapiens; experiment: Selectivity index, ratio of IC50 for human CYP11B2 to IC50 for human CYP11B1
[1] = biological target: T1, Cytochrome P450 11B2, mitochondrial (Homo sapiens, UniProt P19099); experiment: Inhibition of human CYP11B2 expressed in hamster V79MZ cells using 11-deoxycorticosterone substrate; type: cell-based
T1 sequence (P19099 whole entry): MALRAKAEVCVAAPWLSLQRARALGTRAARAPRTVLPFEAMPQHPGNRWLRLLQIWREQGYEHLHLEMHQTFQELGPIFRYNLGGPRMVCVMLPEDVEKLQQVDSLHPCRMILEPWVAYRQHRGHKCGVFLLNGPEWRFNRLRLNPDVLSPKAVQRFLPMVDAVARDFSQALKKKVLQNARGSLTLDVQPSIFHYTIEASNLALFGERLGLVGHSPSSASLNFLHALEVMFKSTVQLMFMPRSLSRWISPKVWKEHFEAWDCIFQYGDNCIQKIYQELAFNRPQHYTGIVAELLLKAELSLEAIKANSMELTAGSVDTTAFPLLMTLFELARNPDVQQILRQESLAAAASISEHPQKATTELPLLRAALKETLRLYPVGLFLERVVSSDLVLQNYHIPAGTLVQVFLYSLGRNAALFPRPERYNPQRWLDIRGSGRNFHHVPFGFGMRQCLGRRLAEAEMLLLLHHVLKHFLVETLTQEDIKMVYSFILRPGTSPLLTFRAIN

CYP19 (aromatase) = biological target: T2, CYP19 (aromatase) (Homo sapiens, UniProt P11511); experiment: (§1) Inhibition of human placental microsomes CYP19 at 500 nM using androstenedione substrate; conditions: human placental microsomes, probe androstenedione
T2 sequence (P11511 whole entry): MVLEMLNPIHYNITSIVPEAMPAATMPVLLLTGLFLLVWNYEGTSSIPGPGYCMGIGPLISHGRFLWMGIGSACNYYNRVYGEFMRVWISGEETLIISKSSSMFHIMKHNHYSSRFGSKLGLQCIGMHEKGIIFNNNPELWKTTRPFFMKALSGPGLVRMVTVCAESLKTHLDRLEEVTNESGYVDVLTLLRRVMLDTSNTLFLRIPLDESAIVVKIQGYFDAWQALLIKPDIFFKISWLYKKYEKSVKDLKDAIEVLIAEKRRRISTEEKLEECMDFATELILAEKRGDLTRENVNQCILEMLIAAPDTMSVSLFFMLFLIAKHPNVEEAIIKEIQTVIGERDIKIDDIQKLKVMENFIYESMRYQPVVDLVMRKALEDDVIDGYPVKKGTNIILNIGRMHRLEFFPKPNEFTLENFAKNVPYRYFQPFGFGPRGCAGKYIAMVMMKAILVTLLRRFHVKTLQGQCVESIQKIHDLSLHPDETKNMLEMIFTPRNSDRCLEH

[2] = biological target: T3, Cytochrome P450 11B1, mitochondrial (Homo sapiens, UniProt P15538); experiment: Inhibition of human CYP11B1 expressed in hamster V79MZ cells using 11-deoxycorticosterone substrate; type: cell-based
T3 sequence (P15538 whole entry): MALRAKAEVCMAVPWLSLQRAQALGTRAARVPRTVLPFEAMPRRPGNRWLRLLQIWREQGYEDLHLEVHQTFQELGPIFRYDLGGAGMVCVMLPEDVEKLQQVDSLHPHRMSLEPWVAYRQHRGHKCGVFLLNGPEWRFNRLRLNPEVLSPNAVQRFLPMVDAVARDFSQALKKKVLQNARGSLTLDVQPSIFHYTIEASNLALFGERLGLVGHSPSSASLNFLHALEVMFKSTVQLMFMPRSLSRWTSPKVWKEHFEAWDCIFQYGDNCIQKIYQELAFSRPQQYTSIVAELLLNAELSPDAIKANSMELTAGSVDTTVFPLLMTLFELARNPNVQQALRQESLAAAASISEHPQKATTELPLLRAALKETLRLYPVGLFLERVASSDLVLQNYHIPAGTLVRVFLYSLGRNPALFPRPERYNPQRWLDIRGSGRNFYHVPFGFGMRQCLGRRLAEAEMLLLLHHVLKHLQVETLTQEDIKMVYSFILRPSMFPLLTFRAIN

[3] = biological target: T4, Steroid 17-alpha-hydroxylase/17,20 lyase (Homo sapiens, UniProt P05093); experiment: (§2) Inhibition of human recombinant CYP17 expressed in Escherichia coli at 2 uM using progesterone substrate; conditions: 2 µM
T4 sequence (P05093 whole entry): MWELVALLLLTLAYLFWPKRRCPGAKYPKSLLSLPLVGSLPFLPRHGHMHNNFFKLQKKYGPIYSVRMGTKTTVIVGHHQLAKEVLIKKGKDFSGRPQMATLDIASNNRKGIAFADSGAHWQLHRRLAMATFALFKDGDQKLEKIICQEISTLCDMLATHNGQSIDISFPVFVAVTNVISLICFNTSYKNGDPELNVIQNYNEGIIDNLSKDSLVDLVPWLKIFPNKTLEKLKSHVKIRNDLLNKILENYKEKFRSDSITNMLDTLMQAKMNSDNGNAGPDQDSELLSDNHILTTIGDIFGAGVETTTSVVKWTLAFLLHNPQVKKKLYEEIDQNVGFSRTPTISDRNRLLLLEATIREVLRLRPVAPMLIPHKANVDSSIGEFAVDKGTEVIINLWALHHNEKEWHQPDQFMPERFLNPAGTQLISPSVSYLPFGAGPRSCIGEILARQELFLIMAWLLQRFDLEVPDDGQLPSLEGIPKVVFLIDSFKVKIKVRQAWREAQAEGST

Aromatase = biological target: T5, Aromatase (Homo sapiens, UniProt P11511); experiment: as §1; conditions: 0.5 µM
T5 sequence (P11511 whole entry): T2 sequence (P11511 whole entry)

CYP17 = biological target: T6, CYP17 (Homo sapiens, UniProt P05093); experiment: as §2; conditions: recombinant human CYP17 expressed in Escherichia coli, probe progesterone
T6 sequence (P05093 whole entry): T4 sequence (P05093 whole entry)

SMILES | Ratio IC50 (Homo sapiens) | IC50 [1] | inhibition at 0.5 µM (CYP19 (aromatase)) | IC50 [2] | inhibition (INH) [3] | inhibition (INH) (Aromatase) | inhibition at 2 µM (CYP17)
c1cn(CC23CC4CC(CC(C4)C2)C3)cn1 | 5.9 | 30 nM | 12% | 5 nM | – | – | –
c1ccc(-c2ccccc2Cn2ccnc2)cc1 | 2.6 | 39 nM | 38% | 15 nM | Not Active | – | –
Cc1cc(C)cc(Cn2ccnc2)c1 | 2.4 | 77 nM | 38% | 32 nM | Not Active | – | –
Clc1ccc(Cn2ccnc2)cc1 | 0.3 | 46 nM | – | 140 nM | Not Active | Not Active | –
c1ccc2c(c1)ncn2CC12CC3CC(CC(C3)C1)C2 | – | – | 12% | 75 nM | Not Active | – | –
Cc1ccc(Cn2cnc3ccccc32)cc1 | 1 | 520 nM | – | 500 nM | Not Active | Not Active | –
Clc1ccc(Cn2cnc3ccccc32)cc1 | 0.2 | 107 nM | – | 635 nM | Not Active | Not Active | –
c1ccc(C(c2ccccc2)(c2ccccc2)n2cnc3ccccc32)cc1 | – | > 1000 nM | – | > 1000 nM | Not Active | Not Active | –
CC(C)(C(=O)c1cccnc1)c1cccnc1 [METYRAPONE] | – | – | – | – | Not Active | Not Active | –
c1ccc(-c2ccc(Cn3ccnc3)cn2)cc1 | 18 | – | 0% | – | – | – | –
Cc1ccccc1Cn1cnc2ccccc21 | 0.3 | 262 nM | – | 779 nM | Not Active | Not Active | –
c1ccc(C(CCn2cnc3ccccc32)(c2ccccc2)c2ccccc2)cc1 | – | > 1000 nM | – | > 1000 nM | Not Active | Not Active | –
c1ccc(-c2ccc(Cn3cnc4ccccc43)cc2)cc1 | 10 | 1900 nM | – | 197 nM | Not Active | Not Active | –
Cc1cc(C)cc(Cn2cnc3ccccc32)c1 | 3.4 | 632 nM | – | 188 nM | Not Active | Not Active | –
Cc1c(C)c(C)c(Cn2cnc3ccccc32)c(C)c1C | – | > 1000 nM | – | > 1000 nM | Not Active | Not Active | –
Cc1cc(C)c(Cn2cnc3ccccc32)c(C)c1 | – | > 1000 nM | – | > 1000 nM | Not Active | Not Active | –
c1ccc(-c2cccc(Cn3ccnc3)c2)cc1 | 5.8 | 265 nM | 38% | 46 nM | Not Active | – | –
Cc1c(C)c(C)c(Cn2ccnc2)c(C)c1C | 4.6 | 23 nM | 12% | 5 nM | Not Active | – | –

SMILES | Ratio IC50 (Homo sapiens) | IC50 [1] | inhibition at 0.5 µM (CYP19 (aromatase)) | IC50 [2] | inhibition (INH) [3] | inhibition (INH) (Aromatase) | inhibition at 2 µM (CYP17)
c1ccc(-c2ccc(Cn3ccnc3)cc2)cc1 | 20 | 637 nM | 5% | 32 nM | – | – | 40%
c1ccc(Cn2ccnc2)cc1 | 3.4 | 456 nM | – | 135 nM | Not Active | Not Active | –
Cc1cccc(Cn2ccnc2)c1 | 2.3 | 110 nM | 12% | 48 nM | Not Active | – | –
Cc1cccc(Cn2cnc3ccccc32)c1 | 1.6 | 309 nM | – | 194 nM | Not Active | Not Active | –
c1ccc(-c2cc(Cn3cnc4ccccc43)cc(-c3ccccc3)c2)cc1 | – | > 1000 nM | – | > 1000 nM | Not Active | Not Active | –
c1ccc(-c2csc(Cn3ccnc3)c2)cc1 | 15 | 277 nM | 72% | 19 nM | – | – | –
Cc1ccc(Cn2ccnc2)cc1 | 1.2 | 320 nM | – | 258 nM | Not Active | Not Active | –
c1ccc(C(Cn2cnc3ccccc32)(c2ccccc2)c2ccccc2)cc1 | – | > 1000 nM | – | > 1000 nM | Not Active | Not Active | –
c1ccc(C(CCn2ccnc2)(c2ccccc2)c2ccccc2)cc1 | 3.6 | 290 nM | 38% | 80 nM | Not Active | – | –
CCOC(=O)c1cncn1[C@H](C)c1ccccc1 [ETOMIDATE] | 0.5 | 0.1 nM | – | – | Not Active | Not Active | –
c1ccc(-c2ccc(Cn3ccnc3)o2)cc1 | 8.1 | 372 nM | 38% | 46 nM | – | – | 0%
c1ccc(C(Cn2ccnc2)(c2ccccc2)c2ccccc2)cc1 | 2 | 8 nM | 38% | 4 nM | Not Active | – | –
c1ccc(C(c2ccccc2)(c2ccccc2)n2ccnc2)cc1 | 3.4 | 11 nM | 38% | 3 nM | Not Active | – | –
c1ccc(Cn2cnc3ccccc32)cc1 | 3.5 | 865 nM | – | 246 nM | Not Active | Not Active | –
c1ccc(-c2ccccc2Cn2cnc3ccccc32)cc1 | – | > 1000 nM | – | > 1000 nM | Not Active | Not Active | –
Cc1cc(C)c(Cn2ccnc2)c(C)c1 | 1.3 | 30 nM | – | 24 nM | Not Active | Not Active | –
c1ccc(-c2cccc(Cn3cnc4ccccc43)c2)cc1 | 6 | 2230 nM | – | 369 nM | Not Active | Not Active | –
Cc1ccccc1Cn1ccnc1 | 1 | 62 nM | 12% | 61 nM | Not Active | – | –
